Reference: US6951647B2, “T cell binding ligand peptides and method of inducing a cellular immune response” (Cel-Sci Corporation, priority 2001, dated 2005)
Values joined by “and” are separate entries in the source; they are usually repeats but may differ in a detail not shown here. Identical values can stand only once. Marks after values point to notes of the source that are not given here.

Experiments:
[1] = test system: modified HGP-30 (mH, SEQ ID NO:6); experiment: Isotype analysis (ELISA) of anti-mH antibody in sera of immunized mice; format: in vivo; design: IgG1 / IgG2a / IgG2b / IgG3: unit not given here; details: ELISA signal, day 42 test bleeding
Method: (§1) Mice in groups (5-10 animals per group as designated) are immunized with the LEAPS constructs (25 μg/dose) of SEQ ID NO's:37, 38 and 39, in 0.2 mL emulsified 1:1 with adjuvant (Seppic's ISA-51 or Corixa's microfluidized MPL S/E) on days 0 and 14. Mice are evaluated by Delayed Type of Hypersensitivity (DTH) by inoculation on day 26 with 20 μl of a solution of saline or mH (SEQ ID NO:6) (25 μg in saline) in the left or right ear respectively. The DTH response is determined by measurement of the ear thickness 48 hours later and expressed as increase in ear thickness (mm) of experimental ear compared to that of the control ear. Individual animal sera are collected for measurement of antibody on day 28, 42, 63 and 77. Sera from individual animals and group pools are evaluated for specific anti-mH antibody, for total antibody, IgG1, IgG2a and IgG3 antibody isotype and cross clade titer at selected time points as indicated.
The results of an isotype analysis of day 42 test bleedings with G′-mH (SEQ ID NO:37), G-mH (SEQ ID NO:38), J-mH (SEQ ID NO:39), F-mH (SEQ ID NO:40) and F-HGP-30 (SEQ ID NO:41), are shown in Table 1.
An isotype analysis for pools of day 28 test bleedings G-mH, G′-mH and m-HGP-30/KLH using either MPL S/E or ISA51 as adjuvant, are shown in Table 3.

modified HGP-30 [2] = experiment: ELISA antibody screening of sera of immunized mice on modified HGP-30; format: in vivo; details: day 63 test bleeding, sera 1:200, individual mouse
Method: as §1, with “indicated. […]” for “indicated.”

B Clade = experiment: ELISA cross clade recognition by sera of immunized mice, B Clade; format: in vivo; details: day 63 test bleeding, sera 1:200, individual mouse
Method: as §1
(§2) The mouse sera for the ELISA was used at a dilution of 1:200. Again, clearly, the construct provides higher signals indicative of higher levels of the antibodies that recognized other clades besides the parental one (Clade B) of mH.
(§3) A cross clade analysis for pools of day 42 test bleedings from the same groups as used in Table 3, were obtained and the results are shown in Table 4.

C Clade = experiment: ELISA cross clade recognition by sera of immunized mice, C Clade; format: in vivo; details: day 63 test bleeding, sera 1:200, individual mouse
Method: as §1, §2, §3

D Clade = experiment: ELISA cross clade recognition by sera of immunized mice, D Clade; format: in vivo; details: day 63 test bleeding, sera 1:200, individual mouse
Method: as §1, §2, §3

E Clade = experiment: ELISA cross clade recognition by sera of immunized mice, E Clade; format: in vivo; details: day 63 test bleeding, sera 1:200, individual mouse
Method: as §1, §2, §3

modified HGP-30 [3] = experiment: Delayed Type Hypersensitivity (DTH) ear thickness response with antisera depletion of CD4 or CD8 cells; format: in vivo, Mice
Method: as §1
Select immunoglobulin preparations were obtained from Dr. Stephen Hoffmann, Malaria Program, U.S. Navy. […] This allows one to determine some parts of the nature of various cellular (e.g., T-cell) involvement in the early stage of immune system response with the LEAPS peptide-constructs. It is recognized, however, that this is only a temporary event since new cells are continuously being developed from stem cells and the animals become resistant to the reagents.
The animals are pretreated with the antisera as indicated for 5 days before the initial immunization with peptide-construct having SEQ ID NO:37 or SEQ ID NO:39 on […]. No pretreatment is done before the booster immunization on day 14 or DTH on day 26-28. The mice are then inoculated with the test antigen or saline (control) on day 26 in the left and right ears, respectively, and the DTH response is measured on day 28. The difference between the values for the test and saline control ears is calculated for each group of five animals along with the standard error of the mean (sem) and the results are plotted (see FIG. 1). Also shown in FIG. 1 are values for the untreated animals and animals immunized on day 14 only.
The DTH (Delayed Type Hypersensitivity) data is statistically significant with a t-test of 0.05 for SEQ ID NO:39 and anti-CD8. The DTH for pretreatment of SEQ ID NO:37 immunized mice with anti-CD4 was just above the cutoff limit for statistical significance due to a weaker DTH response and small group size.

[4] = Day 14 Injection Only (immunized with construct on day 14 only), average of group of 5 mice
[5] = Treatment Anti CD4, daily for 5 days before immunization, average of group (5 mice)
[6] = Treatment Anti CD8, daily for 5 days before immunization, average of group of 5 mice
[7] = Treatment None, average of group (5 mice), ISA 51 adjuvant
[8] = Treatment Normal rat IgG, daily for 5 days before immunization, average of group (5 mice)

Substance | IgG1 ([1]; group Average) | IgG2a ([1]; group Average) | IgG2b ([1]; group Average) | IgG3 ([1]; group Average) | IgG1 ([1]; individual mouse) | IgG2a ([1]; individual mouse) | IgG2b ([1]; individual mouse) | IgG3 ([1]; individual mouse) | ELISA signal on modified HGP-30 (modified HGP-30 [2]) | ELISA signal on B Clade (B Clade) | ELISA signal on C Clade (C Clade) | ELISA signal on D Clade (D Clade) | ELISA signal on E Clade (E Clade) | further results
VQG EES NDK GGG YSV HQR IDV KDT KEA LEK IEE EQN KSK KKA (DLLKNGERIEKVEGGGSTAPPAHGV) [SEQ ID NO: 63, Peptide F linked by GGG spacer to HGP-30] | 0.652 | 0.071 | 0.024 | 0.044 | 0.761 and 0.181 and 0.649 and 0.417 and 0.022 and 1.379 and 0.030 and 0.349 and 0.717 and 2.018 | 0.051 and 0.018 and 0.020 and 0.007 and 0.000 (2×) and 0.048 and 0.026 and 0.192 and 0.350 | 0.003 and 0.001 and 0.007 and 0.005 and 0.006 and 0.028 and 0.047 and 0.000 and 0.027 and 0.117 | 0.040 and 0.006 and 0.104 and 0.173 and 0.009 and 0.013 and 0.007 and 0.000 and 0.058 and 0.028 | 0.065 and 0.216 and 0.128 and 0.000 and 0.110 and 0.017 and 0.201 and 0.623 and 0.747 and 0.013 | 0.000 (6×) and 0.282 and 1.977 and 0.667 and 0.011 | 0.000 (5×) and 0.135 and 0.010 and 1.878 and 0.650 and 1.051 | 0.000 (5×) and 0.012 and 0.005 and 1.941 and 0.386 and 0.050 | 0.000 (7×) and 1.565 and 0.042 and 1.010 | –
DLL KNG ERI EKV EGG GAT LYS VHQ RID VKD TKE ALE KIE EEQ NKS (DGQEEKAGVVSTGLIGGGQYSWFVNGTF) [SEQ ID NO: 59, Peptide J linked by GGG spacer to modified HGP-30 (mH)] | 0.717 | 0.046 | 0.019 | 0.070 | 0.002 and 1.603 and 0.014 and 2.023 and 2.199 and 0.053 and 0.057 and 0.505 and 0.000 | 0.002 (2×) and 0.027 and 0.000 (2×) and 0.299 and 0.060 and 0.014 and 0.011 | 0.002 and 0.014 and 0.000 (5×) and 0.113 and 0.039 | 0.017 and 0.032 and 0.009 and 0.227 and 0.324 and 0.000 (2×) and 0.003 and 0.016 | 0.440 and 0.011 and 0.753 and 0.905 and 0.793 and 0.100 and 0.035 and 0.000 (2×) | 0.262 and 0.000 (6×) and 0.575 and 0.026 | 2.421 and 1.699 and 1.295 and 0.969 and 0.665 and 0.780 and 0.171 and 1.370 and 2.322 | 0.120 and 0.004 and 0.196 and 0.000 (6×) | 2.431 and 1.565 and 0.789 and 0.788 and 0.554 and 0.722 and 0.142 and 1.379 and 2.379 | Left Ear thickness, inoculated day 26 with HGP-30, measured after 48 hours (modified HGP-30 [3]; [4]): 0.254 mm; Right Ear thickness, inoculated day 26 with saline, measured after 48 hours (modified HGP-30 [3]; [4]): 0.231 mm; DTH % increase (L-R)/R (modified HGP-30 [3]; Day 14 Injection Only, average of group of 5 mice): 10.00%; Left Ear thickness, inoculated day 26 with HGP-30, measured after 48 hours (modified HGP-30 [3]; [5]): 0.288 mm; Right Ear thickness, inoculated day 26 with saline, measured after 48 hours (modified HGP-30 [3]; [5]): 0.240 mm; DTH % increase (L-R)/R (modified HGP-30 [3]; Treatment Anti CD4, average of group (5 mice)): 20.00%; Left Ear thickness, inoculated day 26 with HGP-30, measured after 48 hours (modified HGP-30 [3]; [6]): 0.233 mm; Right Ear thickness, inoculated day 26 with saline, measured after 48 hours (modified HGP-30 [3]; [6]): 0.220 mm; DTH % increase (L-R)/R (modified HGP-30 [3]; Treatment Anti CD8, average of group of 5 mice): 6.20%***; DTH % increase (L-R)/R (modified HGP-30 [3]; Treatment None, average of group (5 mice)): 29.30%; Left Ear thickness, inoculated day 26 with HGP-30, measured after 48 hours (modified HGP-30 [3]; [7]): 0.288 mm; Right Ear thickness, inoculated day 26 with saline, measured after 48 hours (modified HGP-30 [3]; [7]): 0.222 mm; Left Ear thickness, inoculated day 26 with HGP-30, measured after 48 hours (modified HGP-30 [3]; [8]): 0.296 mm; Right Ear thickness, inoculated day 26 with saline, measured after 48 hours (modified HGP-30 [3]; [8]): 0.227 mm; DTH % increase (L-R)/R (modified HGP-30 [3]; Treatment Normal rat IgG, average of group (5 mice)): 30.60%; Type of cells required for a DTH response (modified HGP-30 [3]; cell specific antisera as depletion reagent for the primary immunization (FIG. 1)): requires the presence and presumably activation of CD8+ but not CD4+ cells
